# Measured values from patent publication US20240197695A1, “COMPOUND FOR PREVENTION OR TREATMENT OF KIDNEY DISEASE” (ONCOCROSS CO.,LTD, priority 2021, published 2024).
# Marks after values point to notes of the source that are not given here.
# Legend:
# Assay type in all cases: in vivo, mice (C57BL/6)
# [1] = test system: diabetic nephrosis animal models; assay: Changes in blood glucose levels (tail vein, blood glucose level meter)
# Description: (§1) STZ (Sigma-aldrich, S0130, 40 mg/kg b.w., in 0.1 M citrate buffer pH 4.5) was intraperitoneally administered to 9-week-old male mice (C57BL/6) once/1 day for 5 days to perform a first disease induction. After 7 weeks of the first induction, a second induction was performed using the same method as the first induction. For 5 days of an STZ administration period for the first induction, 10% sucrose was administered as drinking water. In addition, after 14 days of the second administration, blood glucose levels were confirmed to confirm the induction rate, and the induced animals were separated into groups. Experimental substances (R)-4-{(R)-1-[7-(3,4,5-trimethoxy-phenyl)-[1,6] naphthyridin-5-yloxy]-ethyl}pyrrolidin-2-one (BI-1002494) and cromolyn (OC-101) were administered orally into the stomach at 10 mL/kg using an administration syringe (sonde) before 16:00 daily for 12 weeks at a frequency of 7 days/week at doses shown in Table 1 below, and dexamethasone was orally administered as a positive control substance.
# Before disease induction, excluding week 9 of administration of experimental substances to mice in each group of Example 1 above, after 2 weeks after the first induction (based on a first administration date), and after 6 weeks and 2 weeks of the second induction (based on the first administration date), blood was collected from the tail vein and blood glucose levels were measured using a blood glucose level meter (Accu-Check, Roche), and fasting was performed for 4 hours from 9:30 a.m. to 1:30.
# [2] = Feed intake of mice in diabetic nephrosis model; parameters: Feed intake, Mean: unit not given here
# Description: as §1
# [3] = Body weights of mice in diabetic nephrosis model
# Description: as §1
# [4] = Drinking water intake of mice in diabetic nephrosis model; parameters: unit not given here
# Description: as §1
compound,measurement,setting,value
"COc1cc(-c2cc3ncccc3c(O[C@H](C)[C@H]3CNC(=O)C3)n2)cc(OC)c1OC [BI-1002494, (R)-4-{(R)-1-[7-(3,4,5-trimethoxy-phenyl)-[1,6]naphthyridin-5-yloxy]-ethyl}pyrrolidin-2-one]","Blood glucose level, Mean","[1]; 12.5 mg/kg/day oral, week 0, 4 h fasting, in mg/dL (unit assumed)",291.1
same,"Blood glucose level, Mean","[1]; 12.5 mg/kg/day oral, week 2, 4 h fasting, in mg/dL (unit assumed)",319.5
same,"Blood glucose level, Mean","[1]; 12.5 mg/kg/day oral, week 4, 4 h fasting",225.1^#
same,"Blood glucose level, Mean","[1]; 12.5 mg/kg/day oral, week 6, 4 h fasting",261.8^#
same,"Blood glucose level, Mean","[1]; 12.5 mg/kg/day oral, week 8, 4 h fasting",270.4^#
same,"Blood glucose level, Mean","[1]; 12.5 mg/kg/day oral, week 10, 4 h fasting",280.8^#
same,"Blood glucose level, Mean","[1]; 25 mg/kg/day oral, week 0, 4 h fasting, in mg/dL (unit assumed)",301.2
same,"Blood glucose level, Mean","[1]; 25 mg/kg/day oral, week 2, 4 h fasting, in mg/dL (unit assumed)",310.1
same,"Blood glucose level, Mean","[1]; 25 mg/kg/day oral, week 4, 4 h fasting",218.6^#
same,"Blood glucose level, Mean","[1]; 25 mg/kg/day oral, week 6, 4 h fasting",257.8^#
same,"Blood glucose level, Mean","[1]; 25 mg/kg/day oral, week 8, 4 h fasting",279.1^#
same,"Blood glucose level, Mean","[1]; 25 mg/kg/day oral, week 10, 4 h fasting",255.9^#
same,"Blood glucose level, Mean","[1]; 50 mg/kg/day oral, week 0, 4 h fasting, in mg/dL (unit assumed)",303.7
same,"Blood glucose level, Mean","[1]; 50 mg/kg/day oral, week 2, 4 h fasting, in mg/dL (unit assumed)",264.5
same,"Blood glucose level, Mean","[1]; 50 mg/kg/day oral, week 4, 4 h fasting",201.0^#
same,"Blood glucose level, Mean","[1]; 50 mg/kg/day oral, week 6, 4 h fasting",199.6^#
same,"Blood glucose level, Mean","[1]; 50 mg/kg/day oral, week 8, 4 h fasting",200.9^#
same,"Blood glucose level, Mean","[1]; 50 mg/kg/day oral, week 10, 4 h fasting",187.3^#
same,Blood glucose levels compared to those of the positive control group,"[1]; administered group (12.5, 25, 50 mg/kg)",decreased significantly
same,"Blood glucose levels, summary",[1]; after induction of diabetic renal diseases,decreased in a dose-dependent manner
same,Feed intake compared to the disease control group,"[2]; 12.5 mg/kg administered group, after week 4 of administration",statistically significantly decreased
same,"Feed intake, Mean","[2]; 12.5 mg/kg/day oral, week 0",6.97
same,"Feed intake, Mean","[2]; 12.5 mg/kg/day oral, week 1",5.61
same,"Feed intake, Mean","[2]; 12.5 mg/kg/day oral, week 2",6.23
same,"Feed intake, Mean","[2]; 12.5 mg/kg/day oral, week 3",4.58
same,"Feed intake, Mean","[2]; 12.5 mg/kg/day oral, week 4",5.14^#
same,"Feed intake, Mean","[2]; 12.5 mg/kg/day oral, week 5",4.98
same,"Feed intake, Mean","[2]; 12.5 mg/kg/day oral, week 6",5.31
same,"Feed intake, Mean","[2]; 12.5 mg/kg/day oral, week 7",5.21
same,"Feed intake, Mean","[2]; 12.5 mg/kg/day oral, week 8",4.26
same,"Feed intake, Mean","[2]; 12.5 mg/kg/day oral, week 9",4.39
same,"Feed intake, Mean","[2]; 12.5 mg/kg/day oral, week 10",4.64
same,Feed intake compared to the disease control group,"[2]; 25 mg/kg administered group, after week 6 of administration",statistically significantly decreased
same,"Feed intake, Mean","[2]; 25 mg/kg/day oral, week 0",6.73
same,"Feed intake, Mean","[2]; 25 mg/kg/day oral, week 1",5.63
same,"Feed intake, Mean","[2]; 25 mg/kg/day oral, week 2",5.59
same,"Feed intake, Mean","[2]; 25 mg/kg/day oral, week 3",5.26
same,"Feed intake, Mean","[2]; 25 mg/kg/day oral, week 4",4.99
same,"Feed intake, Mean","[2]; 25 mg/kg/day oral, week 5",5.15
same,"Feed intake, Mean","[2]; 25 mg/kg/day oral, week 6",5.51^#
same,"Feed intake, Mean","[2]; 25 mg/kg/day oral, week 7",5.04
same,"Feed intake, Mean","[2]; 25 mg/kg/day oral, week 8",4.95
same,"Feed intake, Mean","[2]; 25 mg/kg/day oral, week 9",4.62
same,"Feed intake, Mean","[2]; 25 mg/kg/day oral, week 10",4.63
same,Feed intake compared to the disease control group,"[2]; 50 mg/kg administered group, after week 8 of administration",statistically significantly decreased
same,"Feed intake, Mean","[2]; 50 mg/kg/day oral, week 0",5.98
same,"Feed intake, Mean","[2]; 50 mg/kg/day oral, week 1",5.74
same,"Feed intake, Mean","[2]; 50 mg/kg/day oral, week 2",4.98
same,"Feed intake, Mean","[2]; 50 mg/kg/day oral, week 3",5.36
same,"Feed intake, Mean","[2]; 50 mg/kg/day oral, week 4",5.14
same,"Feed intake, Mean","[2]; 50 mg/kg/day oral, week 5",4.89
same,"Feed intake, Mean","[2]; 50 mg/kg/day oral, week 6",5.64
same,"Feed intake, Mean","[2]; 50 mg/kg/day oral, week 7",5.11
same,"Feed intake, Mean","[2]; 50 mg/kg/day oral, week 8",4.86^#
same,"Feed intake, Mean","[2]; 50 mg/kg/day oral, week 9",4.30
same,"Feed intake, Mean","[2]; 50 mg/kg/day oral, week 10",4.14
same,Body weight compared to the disease control group,"[3]; 12.5 mg/kg administered group, after week 5 of administration",statistically significantly increased
same,"Body weight, Mean","[3]; 12.5 mg/kg/day oral, week 0",24 g
same,"Body weight, Mean","[3]; 12.5 mg/kg/day oral, week 1",23.7 g
same,"Body weight, Mean","[3]; 12.5 mg/kg/day oral, week 2",23.8 g
same,"Body weight, Mean","[3]; 12.5 mg/kg/day oral, week 3",24.1 g
same,"Body weight, Mean","[3]; 12.5 mg/kg/day oral, week 4",24.3 g
same,"Body weight, Mean","[3]; 12.5 mg/kg/day oral, week 5",24.2^#
same,"Body weight, Mean","[3]; 12.5 mg/kg/day oral, week 6",24.4^#
same,"Body weight, Mean","[3]; 12.5 mg/kg/day oral, week 7",24.3^#
same,"Body weight, Mean","[3]; 12.5 mg/kg/day oral, week 8",24.2^#
same,"Body weight, Mean","[3]; 12.5 mg/kg/day oral, week 10",23.8^#
same,Body weight compared to the disease control group,"[3]; 25 mg/kg administered group, after week 8",statistically significantly increased
same,"Body weight, Mean","[3]; 25 mg/kg/day oral, week 0",23.8 g
same,"Body weight, Mean","[3]; 25 mg/kg/day oral, week 1",23.5 g
same,"Body weight, Mean","[3]; 25 mg/kg/day oral, week 2",23.7 g
same,"Body weight, Mean","[3]; 25 mg/kg/day oral, week 3",23.9 g
same,"Body weight, Mean","[3]; 25 mg/kg/day oral, week 4",23.9 g
same,"Body weight, Mean","[3]; 25 mg/kg/day oral, week 5",24 g
same,"Body weight, Mean","[3]; 25 mg/kg/day oral, week 6",23.9 g
same,"Body weight, Mean","[3]; 25 mg/kg/day oral, week 7",24 g
same,"Body weight, Mean","[3]; 25 mg/kg/day oral, week 8",24.0^#
same,"Body weight, Mean","[3]; 25 mg/kg/day oral, week 10",23.7^#
same,Body weight compared to the disease control group,"[3]; 50 mg/kg administered group, after week 8",statistically significantly increased
same,"Body weight, Mean","[3]; 50 mg/kg/day oral, week 0",23.9 g
same,"Body weight, Mean","[3]; 50 mg/kg/day oral, week 1",23.6 g
same,"Body weight, Mean","[3]; 50 mg/kg/day oral, week 2",23.8 g
same,"Body weight, Mean","[3]; 50 mg/kg/day oral, week 3",23.8 g
same,"Body weight, Mean","[3]; 50 mg/kg/day oral, week 4",23.8 g
same,"Body weight, Mean","[3]; 50 mg/kg/day oral, week 5",23.9 g
same,"Body weight, Mean","[3]; 50 mg/kg/day oral, week 6",23.9 g
same,"Body weight, Mean","[3]; 50 mg/kg/day oral, week 7",24 g
same,"Body weight, Mean","[3]; 50 mg/kg/day oral, week 8",23.9^#
same,"Body weight, Mean","[3]; 50 mg/kg/day oral, week 10",23.7^#
same,"Drinking water intake, Mean","[4]; 12.5 mg/kg/day oral, week 0",7.80
same,"Drinking water intake, Mean","[4]; 12.5 mg/kg/day oral, week 1",7.91
same,"Drinking water intake, Mean","[4]; 12.5 mg/kg/day oral, week 2",7.41
same,"Drinking water intake, Mean","[4]; 12.5 mg/kg/day oral, week 3",7.39
same,"Drinking water intake, Mean","[4]; 12.5 mg/kg/day oral, week 4",7.38
same,"Drinking water intake, Mean","[4]; 12.5 mg/kg/day oral, week 5",7.16
same,"Drinking water intake, Mean","[4]; 12.5 mg/kg/day oral, week 6",7.34
same,"Drinking water intake, Mean","[4]; 12.5 mg/kg/day oral, week 7",7.24
same,"Drinking water intake, Mean","[4]; 12.5 mg/kg/day oral, week 8",6.99
same,"Drinking water intake, Mean","[4]; 12.5 mg/kg/day oral, week 9",7.40
same,"Drinking water intake, Mean","[4]; 12.5 mg/kg/day oral, week 10",7.46
same,"Drinking water intake, Mean","[4]; 25 mg/kg/day oral, week 0",7.07
same,"Drinking water intake, Mean","[4]; 25 mg/kg/day oral, week 1",7.62
same,"Drinking water intake, Mean","[4]; 25 mg/kg/day oral, week 2",7.86
same,"Drinking water intake, Mean","[4]; 25 mg/kg/day oral, week 3",7.38
same,"Drinking water intake, Mean","[4]; 25 mg/kg/day oral, week 4",6.73
same,"Drinking water intake, Mean","[4]; 25 mg/kg/day oral, week 5",7.19
same,"Drinking water intake, Mean","[4]; 25 mg/kg/day oral, week 6",7.34
same,"Drinking water intake, Mean","[4]; 25 mg/kg/day oral, week 7",7.69
same,"Drinking water intake, Mean","[4]; 25 mg/kg/day oral, week 8",7.43
same,"Drinking water intake, Mean","[4]; 25 mg/kg/day oral, week 9",7.54
same,"Drinking water intake, Mean","[4]; 25 mg/kg/day oral, week 10",7.15
same,"Drinking water intake, Mean","[4]; 50 mg/kg/day oral, week 0",7.27
same,"Drinking water intake, Mean","[4]; 50 mg/kg/day oral, week 1",7.04
same,"Drinking water intake, Mean","[4]; 50 mg/kg/day oral, week 2",6.07
same,"Drinking water intake, Mean","[4]; 50 mg/kg/day oral, week 3",6.96
same,"Drinking water intake, Mean","[4]; 50 mg/kg/day oral, week 4",7.13
same,"Drinking water intake, Mean","[4]; 50 mg/kg/day oral, week 5",6.48
same,"Drinking water intake, Mean","[4]; 50 mg/kg/day oral, week 6",6.93
same,"Drinking water intake, Mean","[4]; 50 mg/kg/day oral, week 7",6.39
same,"Drinking water intake, Mean","[4]; 50 mg/kg/day oral, week 8",6.91
same,"Drinking water intake, Mean","[4]; 50 mg/kg/day oral, week 9",6.61
same,"Drinking water intake, Mean","[4]; 50 mg/kg/day oral, week 10",6.22
